By MIC is commonly meant the lowest concentration found to suppress growth. A higher MIC goes with a less susceptible organism. For orientation: IC50 means the concentration at which inhibition is half-maximal. Higher therefore signals lower potency.

Molecules are shown by their SMILES. ≈ marks a conversion by molar mass, not a printed value. Calls of active or inactive are those of the source. The calls are words filed in the database; no cut-off is given here. A value given as a limit tells only on which side of the number the result lay.

From ChEMBL document CHEMBL2177002, “Antifungal spectrum, in vivo efficacy, and structure-activity relationship of ilicicolin h” (ACS Med Chem Lett, 2012) come the findings set out here.

Assay [1] concerns Candida albicans. As to the kind of experiment: Antifungal activity against Candida albicans MY 1055 after 24 hrs by NCCLS broth microdilution method. The class given is functional. The following applies: for MIC: MY 1055, 24 h. (Broth dilution looks for growth in wells or tubes with falling amounts of substance.)
In assay [2] the test system is Pichia kudriavzevii. As to the kind of experiment: Antifungal activity against Candida krusei CLY 549 after 24 hrs by NCCLS broth microdilution method. Type of assay: functional.
Assay [3] has as its system Candida albicans. As to the kind of experiment: Antifungal activity against fluconazole-resistant Candida albicans MY 2301 after 24 hrs by NCCLS broth microdilution method. Type of assay: functional.
In assay [4] the test system is Nakaseomyces glabratus. As to the kind of experiment: Antifungal activity against Candida glabrata CLY 574 after 24 hrs by NCCLS broth microdilution method. The class given is functional.
In assay [5] the test system is Candida tropicalis. As to the kind of experiment: Antifungal activity against Candida tropicalis MY 1012 after 40 hrs by NCCLS broth microdilution method. Type of assay: functional.
Assay [6] has as its system Meyerozyma guilliermondii. As to the kind of experiment: Antifungal activity against Candida guilliermondii CLY 346 after 24 hrs by NCCLS broth microdilution method. The class given is functional.
Assay [7] has as its system Cryptococcus neoformans. As to the kind of experiment: Antifungal activity against Cryptococcus neoformans MY 2061 after 40 hrs by NCCLS broth microdilution method. The class given is functional.
Assay [8] concerns Meyerozyma guilliermondii. As to the kind of experiment: Antifungal activity against Candida guilliermondii CLY 308 after 24 hrs by NCCLS broth microdilution method. The class given is functional.
In assay [9] the test system is Candida parapsilosis. As to the kind of experiment: Antifungal activity against Candida parapsilosis ATCC 22019 after 24 hrs by NCCLS broth microdilution method. Type of assay: functional.
In assay [10] the test system is Cryptococcus neoformans. As to the kind of experiment: Antifungal activity against Cryptococcus neoformans H 99 after 40 hrs by NCCLS broth microdilution method. Type of assay: functional.
The subject of assay [11] is Candida albicans. As to the kind of experiment: Antifungal activity against Candida albicans SC 53124 after 24 hrs by NCCLS broth microdilution method. The class given is functional.
Assay [12] concerns Nakaseomyces glabratus. As to the kind of experiment: Antifungal activity against Candida glabrata MY 1381 after 24 hrs by NCCLS broth microdilution method. Type of assay: functional.
Assay [13] has as its system Clavispora lusitaniae. As to the kind of experiment: Antifungal activity against Candida lusitaniae MY 1396 after 24 hrs by NCCLS broth microdilution method. Type of assay: functional.
Assay [14] concerns Cytochrome b (Candida albicans (strain SC5314 / ATCC MYA-2876) (Yeast)), P0C8L0 [G37S]. As to the kind of experiment: Inhibition of Candida albicans isolate 6 cytochrome bc1 complex harboring cytochrome b G37S mutant.
Assay [15] has as its system Cytochrome b (Candida albicans (strain SC5314 / ATCC MYA-2876) (Yeast)), P0C8L0 [S20I]. As to the kind of experiment: Inhibition of Candida albicans isolate 1 cytochrome bc1 complex harboring cytochrome b S20I mutant.
Assay [16] has as its system Cytochrome b (Saccharomyces cerevisiae (strain ATCC 204508 / S288c) (Baker's yeast)), P00163 [G37D]. As to the kind of experiment: Inhibition of Saccharomyces cerevisiae isolate 2 cytochrome bc1 complex harboring cytochrome b G37D mutant.
Assay [17] has as its system Cytochrome b (Saccharomyces cerevisiae (strain ATCC 204508 / S288c) (Baker's yeast)), P00163 [G37S]. As to the kind of experiment: Inhibition of Saccharomyces cerevisiae isolate 2 cytochrome bc1 complex harboring cytochrome b G37S mutant.
Assay [18] concerns Cytochrome b (Candida albicans (strain SC5314 / ATCC MYA-2876) (Yeast)), P0C8L0 [G37D]. As to the kind of experiment: Inhibition of Candida albicans isolate 4 cytochrome bc1 complex harboring cytochrome b G37D mutant.
Assay [19] deals with Cytochrome b (Candida albicans (strain SC5314 / ATCC MYA-2876) (Yeast)), P0C8L0 [G37C]. As to the kind of experiment: Inhibition of Candida albicans isolate 3 cytochrome bc1 complex harboring cytochrome b G37C mutant.
Assay [20] relates to Cytochrome b (Saccharomyces cerevisiae (strain ATCC 204508 / S288c) (Baker's yeast)), P00163 [Q22T]. As to the kind of experiment: Inhibition of Saccharomyces cerevisiae isolate 2 cytochrome bc1 complex harboring cytochrome b Q22T mutant.
The subject of assay [21] is Cytochrome b (Candida albicans (strain SC5314 / ATCC MYA-2876) (Yeast)), P0C8L0 [Q22E]. As to the kind of experiment: Inhibition of Candida albicans isolate 2 cytochrome bc1 complex harboring cytochrome b Q22E mutant.
Assay [22] deals with Cytochrome b (Saccharomyces cerevisiae (strain ATCC 204508 / S288c) (Baker's yeast)), P00163 [Q22E]. As to the kind of experiment: Inhibition of Saccharomyces cerevisiae isolate 3 cytochrome bc1 complex harboring cytochrome b Q22E mutant.
Assay [23] has as its system Cytochrome b (Saccharomyces cerevisiae (strain ATCC 204508 / S288c) (Baker's yeast)), P00163 [S20L]. As to the kind of experiment: Inhibition of Saccharomyces cerevisiae isolate 1 cytochrome bc1 harboring cytochrome b S20L mutant.
Assay [24] deals with Cytochrome b (Saccharomyces cerevisiae (strain ATCC 204508 / S288c) (Baker's yeast)), P00163 [S20T]. As to the kind of experiment: Inhibition of Saccharomyces cerevisiae isolate 1 cytochrome bc1 harboring cytochrome b S20T mutant.
Assay [25] concerns Cytochrome b (Saccharomyces cerevisiae (strain ATCC 204508 / S288c) (Baker's yeast)), P00163 [L198F]. As to the kind of experiment: Inhibition of Saccharomyces cerevisiae isolate 1 cytochrome bc1 complex harboring cytochrome b L198F mutant.
A short description of assay [26]: Inhibition of Candida albicans MY 1055 NADH:cytochrome c oxidoreductase.
A short description of assay [27]: Selectivity ratio of MIC for Candida albicans MY 1055 to IC50 for Candida albicans MY 1055 NADH:cytochrome c oxidoreductase. The class given is functional.

Chain of Cytochrome b (Saccharomyces cerevisiae (strain ATCC 204508 / S288c) (Baker's yeast)), P00163 [G37D] (P00163 whole entry G37D): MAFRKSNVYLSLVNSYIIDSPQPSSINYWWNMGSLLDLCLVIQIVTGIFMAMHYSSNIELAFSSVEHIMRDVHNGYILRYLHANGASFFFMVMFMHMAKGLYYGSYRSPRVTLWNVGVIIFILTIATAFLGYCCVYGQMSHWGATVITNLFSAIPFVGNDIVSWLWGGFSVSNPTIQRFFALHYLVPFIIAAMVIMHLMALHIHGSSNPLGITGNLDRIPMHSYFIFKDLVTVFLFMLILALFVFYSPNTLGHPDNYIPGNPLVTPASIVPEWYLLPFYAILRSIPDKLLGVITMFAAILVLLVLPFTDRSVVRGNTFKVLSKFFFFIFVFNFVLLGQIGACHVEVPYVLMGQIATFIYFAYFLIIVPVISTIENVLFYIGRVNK
Chain of Cytochrome b (Candida albicans (strain SC5314 / ATCC MYA-2876) (Yeast)), P0C8L0 [Q22E] (P0C8L0 whole entry Q22E): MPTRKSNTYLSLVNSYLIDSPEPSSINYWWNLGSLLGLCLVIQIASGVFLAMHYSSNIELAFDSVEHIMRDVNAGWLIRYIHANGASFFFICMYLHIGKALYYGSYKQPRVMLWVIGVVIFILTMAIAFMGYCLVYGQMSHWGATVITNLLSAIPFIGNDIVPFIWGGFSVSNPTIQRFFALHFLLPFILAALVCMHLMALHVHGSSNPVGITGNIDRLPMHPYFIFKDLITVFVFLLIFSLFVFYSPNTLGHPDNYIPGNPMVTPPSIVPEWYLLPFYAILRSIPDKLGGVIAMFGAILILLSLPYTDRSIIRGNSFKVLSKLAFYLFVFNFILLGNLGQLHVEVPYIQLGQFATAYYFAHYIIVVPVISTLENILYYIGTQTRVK
Chain of Cytochrome b (Saccharomyces cerevisiae (strain ATCC 204508 / S288c) (Baker's yeast)), P00163 [S20L] (P00163 whole entry S20L): as the sequence (P00163 whole entry G37D) above, with S20L, D37G counted along it
Chain of Cytochrome b (Candida albicans (strain SC5314 / ATCC MYA-2876) (Yeast)), P0C8L0 [G37S] (P0C8L0 whole entry G37S): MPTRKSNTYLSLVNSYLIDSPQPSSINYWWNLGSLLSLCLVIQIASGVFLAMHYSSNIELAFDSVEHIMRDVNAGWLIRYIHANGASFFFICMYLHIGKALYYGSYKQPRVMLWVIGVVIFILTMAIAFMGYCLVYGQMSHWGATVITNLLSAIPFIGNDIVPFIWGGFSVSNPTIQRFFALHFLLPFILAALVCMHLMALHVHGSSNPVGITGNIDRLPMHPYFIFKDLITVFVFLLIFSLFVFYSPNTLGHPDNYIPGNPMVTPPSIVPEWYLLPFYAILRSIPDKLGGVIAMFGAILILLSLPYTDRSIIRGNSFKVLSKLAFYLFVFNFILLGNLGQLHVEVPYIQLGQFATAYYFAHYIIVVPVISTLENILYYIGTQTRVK
Chain of Cytochrome b (Saccharomyces cerevisiae (strain ATCC 204508 / S288c) (Baker's yeast)), P00163 [L198F] (P00163 whole entry L198F): as the sequence (P00163 whole entry G37D) above, with D37G, L198F counted along it
Chain of Cytochrome b (Candida albicans (strain SC5314 / ATCC MYA-2876) (Yeast)), P0C8L0 [G37D] (P0C8L0 whole entry G37D): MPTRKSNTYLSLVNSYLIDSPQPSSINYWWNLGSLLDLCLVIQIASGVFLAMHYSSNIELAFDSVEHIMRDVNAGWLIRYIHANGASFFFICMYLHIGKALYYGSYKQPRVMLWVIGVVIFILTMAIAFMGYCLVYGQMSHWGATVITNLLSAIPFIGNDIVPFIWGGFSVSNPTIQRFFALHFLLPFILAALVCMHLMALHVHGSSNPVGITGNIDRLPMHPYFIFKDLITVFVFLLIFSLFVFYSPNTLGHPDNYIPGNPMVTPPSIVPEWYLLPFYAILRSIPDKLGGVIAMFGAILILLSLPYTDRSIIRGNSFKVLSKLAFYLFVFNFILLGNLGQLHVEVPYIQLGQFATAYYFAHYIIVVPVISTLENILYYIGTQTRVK
Chain of Cytochrome b (Candida albicans (strain SC5314 / ATCC MYA-2876) (Yeast)), P0C8L0 [S20I] (P0C8L0 whole entry S20I): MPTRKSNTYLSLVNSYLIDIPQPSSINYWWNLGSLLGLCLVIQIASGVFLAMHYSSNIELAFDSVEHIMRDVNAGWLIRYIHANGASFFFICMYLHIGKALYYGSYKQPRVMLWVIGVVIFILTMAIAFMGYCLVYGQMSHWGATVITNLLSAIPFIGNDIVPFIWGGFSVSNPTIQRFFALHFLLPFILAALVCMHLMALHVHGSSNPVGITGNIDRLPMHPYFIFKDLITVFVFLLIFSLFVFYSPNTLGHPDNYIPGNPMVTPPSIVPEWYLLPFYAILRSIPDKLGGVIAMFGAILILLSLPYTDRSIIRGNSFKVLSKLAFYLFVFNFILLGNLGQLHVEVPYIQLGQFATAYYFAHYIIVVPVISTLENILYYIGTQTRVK
Chain of Cytochrome b (Candida albicans (strain SC5314 / ATCC MYA-2876) (Yeast)), P0C8L0 [G37C] (P0C8L0 whole entry G37C): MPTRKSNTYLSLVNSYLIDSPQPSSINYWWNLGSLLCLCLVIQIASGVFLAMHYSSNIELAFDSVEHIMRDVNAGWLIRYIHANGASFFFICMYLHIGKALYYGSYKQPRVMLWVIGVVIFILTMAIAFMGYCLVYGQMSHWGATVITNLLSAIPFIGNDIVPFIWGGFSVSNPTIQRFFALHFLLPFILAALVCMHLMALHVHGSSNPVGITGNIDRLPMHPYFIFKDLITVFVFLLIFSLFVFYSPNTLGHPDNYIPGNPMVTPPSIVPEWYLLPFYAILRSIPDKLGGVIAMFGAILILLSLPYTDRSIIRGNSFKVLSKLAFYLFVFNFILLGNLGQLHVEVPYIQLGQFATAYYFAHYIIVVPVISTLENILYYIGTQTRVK
Chain of Cytochrome b (Saccharomyces cerevisiae (strain ATCC 204508 / S288c) (Baker's yeast)), P00163 [Q22E] (P00163 whole entry Q22E): as the sequence (P00163 whole entry G37D) above, with Q22E, D37G counted along it
Chain of Cytochrome b (Saccharomyces cerevisiae (strain ATCC 204508 / S288c) (Baker's yeast)), P00163 [S20T] (P00163 whole entry S20T): as the sequence (P00163 whole entry G37D) above, with S20T, D37G counted along it
Chain of Cytochrome b (Saccharomyces cerevisiae (strain ATCC 204508 / S288c) (Baker's yeast)), P00163 [Q22T] (P00163 whole entry Q22T): as the sequence (P00163 whole entry G37D) above, with Q22T, D37G counted along it
Chain of Cytochrome b (Saccharomyces cerevisiae (strain ATCC 204508 / S288c) (Baker's yeast)), P00163 [G37S] (P00163 whole entry G37S): as the sequence (P00163 whole entry G37D) above, with D37S counted along it

`C/C=C/[C@@H]1[C@H]2C[C@@H](C)CC[C@@H]2C(C)=C[C@H]1/C1=N/NCCOCC12C(=O)NC=C(c1ccc(O)cc1)C2=O` (some centres not stated) had a minimal inhibitory concentration (MIC) in assay [1] of more than 10 µg/mL.

On to `OC(Cn1cncn1)(Cn1cncn1)c1ccc(F)cc1F`, for which the result in [2], in assay [3], in assay [4], in assay [5], in assay [1] and in assay [6] was Active. In addition, the result in assay [7], in assay [8], in [9], in assay [10], in [11] and in assay [12] was Active. Besides, in assay [13], the outcome was Active.

Take `CO/C(=C/C(N)=O)[C@H](C)[C@H](/C=C/c1csc(-c2csc([C@@H](C)/C=C/C=C/C(C)C)n2)n1)OC`: the inhibition entry in [14], in assay [15], in assay [16], in [17], in assay [18] and in assay [19] was “Active” in each case. For the same compound, the inhibition entry in assay [20], in [21], in assay [22], in [23], in assay [24] and in assay [25] was “Active” throughout.

On to `C/C=C/[C@H]1C(c2noc3c(-c4ccc(O)cc4)c[nH]c(=O)c23)C=C(C)[C@H]2CC[C@H](C)C[C@@H]21` (single isomer, unassigned), for which the MIC in [1] was more than 10 µg/mL.

As to `CC[C@H](C)C[C@H](C)CCCCCCCCC(=O)N[C@H]1C[C@@H](O)[C@@H](NCCN)NC(=O)[C@@H]2[C@@H](O)CCN2C(=O)[C@H]([C@H](O)CCN)NC(=O)[C@H]([C@H](O)[C@@H](O)c2ccc(O)cc2)NC(=O)[C@@H]2C[C@@H](O)CN2C(=O)[C@H]([C@@H](C)O)NC1=O`, the outcome in assay [2], in assay [3], in assay [4], in [5], in assay [1] and in assay [6] was Active. In addition, the result in assay [7], in assay [8], in [9], in [10], in assay [11] and in assay [12] was Active. In addition, the result in assay [13] was Active.

`C/C=C/[C@H]1C(c2n[nH]c3c(-c4ccc(O)cc4)c[nH]c(=O)c23)C=C(C)[C@H]2CC[C@H](C)C[C@@H]21` (single isomer, unassigned) yielded a 50% inhibitory concentration (IC50) in assay [26] of 0.003 µg/mL (≈ 0.00698 µM). Further, the minimal inhibitory concentration (MIC) in assay [1] came out at 0.25 µg/mL (≈ 0.582 µM). In assay [27], the Ratio is 10.

In [1], `C/C=C/[C@@H]1[C@H]2C[C@@H](C)CC[C@@H]2C(C)=C[C@H]1/C(=N\O)c1c(O)c(-c2ccc(O)cc2)c[nH]c1=O` gave a minimal inhibitory concentration (MIC) of more than 10 µg/mL.

Consider `C[C@@H]1[C@H](O)[C@@H](C)/C=C/C=C/C=C/C=C/C=C/C=C/C=C/[C@H](O[C@@H]2O[C@H](C)[C@@H](O)[C@H](N)[C@@H]2O)C[C@@H]2O[C@](O)(C[C@@H](O)C[C@@H](O)[C@H](O)CC[C@@H](O)C[C@@H](O)CC(=O)O[C@H]1C)C[C@H](O)[C@H]2C(=O)O`, for which the outcome in assay [2], in [3], in assay [4], in [5], in assay [1] and in [6] was Active. Further, the outcome in [7], in assay [8], in assay [9], in assay [10], in [11] and in [12] was Active. The outcome in assay [13] was Active.
